Measurements from patent US20090215883A1, “Pharmaceutical formulation comprising taxane, a solid composition of taxane, a process for preparing said solid composition of taxane, a solubilizing composition of said solid composition of taxane, and a kit for the injectable formulation of taxane” (ERIOCHEM S.A., priority 2006, published 2009).

Assay: Laboratory tests of direct dissolution in tensoactives
Assay type: physicochemical

Which results are given for `CC(=O)O[C@@]12CO[C@@H]1C[C@H](O)[C@@]1(C)C(=O)[C@H](O)C3=C(C)[C@@H](OC(=O)[C@H](O)[C@@H](NC(=O)OC(C)(C)C)c4ccccc4)C[C@@](O)([C@@H](OC(=O)c4ccccc4)[C@H]21)C3(C)C` [trihydrate docetaxel, docetaxel]?
Direct dissolution in pure polysorbate 80 (pure polysorbate 80): cannot be dissolved directly; Direct dissolution in tensoactive aqueous solution (tensoactive aqueous solution (aqueous Solutol HS15 for the solid composition), no organic solvent): cannot be dissolved directly
